Assays:
Assay in all cases: KinaseProfiler off-target kinase profiling
Assay type in all cases: biochemical
Conditions in all cases: 10 μM, ATP near Km
AURKA = AURKA (Homo sapiens (Human), UniProt O14965)
Method: (§1) Two representative compounds (Example 2, 14) of the invention were tested for off-target kinase activity at a concentration of 10 μM by Millipore, Inc. in their KinaseProfiler™ service against all the kinases available in their full kinase panel. These compounds were run in duplicate at a concentration of ATP near the Km for each individual kinase according to Millipore's specifications. The results are shown in Table B. Data are reported as percent of control (POC) and are the average of the two replicates.

Axl = Axl (Homo sapiens (Human), UniProt P30530)
Method: as §1

CDK3/cyclinE = CDK3/cyclinE (Homo sapiens (Human), UniProt Q00526)
Method: as §1

CK1gamma1 = CK1gamma1 (Homo sapiens (Human), UniProt Q9HCP0)
Method: as §1

CLK2 = CLK2 (Homo sapiens (Human), UniProt P49760)
Method: as §1

DCAMKL2 = DCAMKL2 (Homo sapiens (Human), UniProt Q8N568)
Method: as §1

EphA4 = EphA4 (Homo sapiens (Human), UniProt P54764)
Method: as §1

EphB4 = EphB4 (Homo sapiens (Human), UniProt P54760)
Method: as §1

FAK = FAK (Homo sapiens (Human), UniProt Q05397)
Method: as §1

Fgr = Fgr (Homo sapiens (Human), UniProt P09769)
Method: as §1

HIPK1 = HIPK1 (Homo sapiens (Human), UniProt Q86Z02)
Method: as §1

IKKalpha = IKKalpha (Homo sapiens (Human), UniProt O15111)
Method: as §1

IR = IR (Homo sapiens (Human), UniProt P06213)
Method: as §1

JAK3 = JAK3 (Homo sapiens (Human), UniProt P52333)
Method: as §1

MAPKAP-K2 = MAPKAP-K2 (Homo sapiens (Human), UniProt P49137)
Method: as §1

MEK1 = MEK1 (Homo sapiens (Human), UniProt Q02750)
Method: as §1

MLK1 = MLK1 (Homo sapiens (Human), UniProt P80192)
Method: as §1

MRCKalpha = MRCKalpha (Homo sapiens (Human), UniProt Q5VT25)
Method: as §1

MSK2 = MSK2 (Homo sapiens (Human), UniProt O75676)
Method: as §1

NEK2 = NEK2 (Homo sapiens (Human), UniProt P51955)
Method: as §1

PDGFRbeta = PDGFRbeta (Homo sapiens (Human), UniProt P09619)
Method: as §1

PKCbetaI = PKCbetaI (Homo sapiens (Human), UniProt P05771)
Method: as §1

PKCdelta = PKCdelta (Homo sapiens (Human), UniProt Q05655)
Method: as §1

PKCgamma = PKCgamma (Homo sapiens (Human), UniProt P05129)
Method: as §1

PKCtheta = PKCtheta (Homo sapiens (Human), UniProt Q04759)
Method: as §1

PKD1 = PKD1 (Homo sapiens (Human), UniProt Q15139)
Method: as §1

PTK6 = PTK6 (Homo sapiens (Human), UniProt Q13882)
Method: as §1

PhKgamma2 = PhKgamma2 (Homo sapiens (Human), UniProt P15735)
Method: as §1

Plk3 = Plk3 (Homo sapiens (Human), UniProt Q9H4B4)
Method: as §1

PrKX = PrKX (Homo sapiens (Human), UniProt P51817)
Method: as §1

ROCK-I = ROCK-I (Homo sapiens (Human), UniProt Q13464)
Method: as §1

Ret = Ret (Homo sapiens (Human), UniProt P07949)
Method: as §1

Rse = Rse (Homo sapiens (Human), UniProt Q06418)
Method: as §1

SRPK2 = SRPK2 (Homo sapiens (Human), UniProt P78362)
Method: as §1

STK33 = STK33 (Homo sapiens (Human), UniProt Q9BYT3)
Method: as §1

TLK2 = TLK2 (Homo sapiens (Human), UniProt Q86UE8)
Method: as §1

TrkB = TrkB (Homo sapiens (Human), UniProt Q16620)
Method: as §1

WNK2 = WNK2 (Homo sapiens (Human), UniProt Q9Y3S1)
Method: as §1

p38beta = p38beta (Homo sapiens (Human), UniProt Q15759)
Method: as §1

p38gamma = p38gamma (Homo sapiens (Human), UniProt P53778)
Method: as §1

Chain of HIPK1 (Q86Z02 whole entry): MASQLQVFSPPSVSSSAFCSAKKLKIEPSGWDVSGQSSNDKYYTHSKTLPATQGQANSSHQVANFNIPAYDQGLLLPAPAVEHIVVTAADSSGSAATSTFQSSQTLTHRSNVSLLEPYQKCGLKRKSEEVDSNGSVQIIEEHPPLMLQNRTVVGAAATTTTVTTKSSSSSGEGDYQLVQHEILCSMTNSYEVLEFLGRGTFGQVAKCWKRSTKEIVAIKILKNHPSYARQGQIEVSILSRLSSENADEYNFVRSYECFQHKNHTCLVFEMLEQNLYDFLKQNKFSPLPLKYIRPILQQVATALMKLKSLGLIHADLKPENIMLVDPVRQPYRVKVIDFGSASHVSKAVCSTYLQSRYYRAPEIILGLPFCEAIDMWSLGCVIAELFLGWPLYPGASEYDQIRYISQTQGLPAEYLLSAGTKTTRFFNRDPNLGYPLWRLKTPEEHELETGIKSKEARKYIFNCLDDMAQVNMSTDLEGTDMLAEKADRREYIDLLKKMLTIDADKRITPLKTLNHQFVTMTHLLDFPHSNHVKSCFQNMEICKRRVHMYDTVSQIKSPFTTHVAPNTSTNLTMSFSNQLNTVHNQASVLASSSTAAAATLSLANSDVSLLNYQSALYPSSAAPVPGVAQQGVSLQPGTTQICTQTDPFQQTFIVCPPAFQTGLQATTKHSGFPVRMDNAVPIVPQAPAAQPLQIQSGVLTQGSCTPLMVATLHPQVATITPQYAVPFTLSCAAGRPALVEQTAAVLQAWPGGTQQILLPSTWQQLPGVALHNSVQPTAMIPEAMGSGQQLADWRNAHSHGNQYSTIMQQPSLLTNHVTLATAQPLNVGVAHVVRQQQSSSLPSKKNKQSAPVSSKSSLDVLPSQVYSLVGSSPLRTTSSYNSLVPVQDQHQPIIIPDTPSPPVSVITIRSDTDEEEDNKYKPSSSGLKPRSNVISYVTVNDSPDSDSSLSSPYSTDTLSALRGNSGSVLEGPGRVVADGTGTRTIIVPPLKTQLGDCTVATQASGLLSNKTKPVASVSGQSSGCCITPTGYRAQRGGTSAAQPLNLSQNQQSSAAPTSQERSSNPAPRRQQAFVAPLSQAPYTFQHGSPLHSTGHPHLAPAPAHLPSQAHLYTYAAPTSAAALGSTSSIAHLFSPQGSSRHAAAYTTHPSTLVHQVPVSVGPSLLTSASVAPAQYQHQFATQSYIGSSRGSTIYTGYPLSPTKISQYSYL
Chain of ROCK-I (Q13464 whole entry): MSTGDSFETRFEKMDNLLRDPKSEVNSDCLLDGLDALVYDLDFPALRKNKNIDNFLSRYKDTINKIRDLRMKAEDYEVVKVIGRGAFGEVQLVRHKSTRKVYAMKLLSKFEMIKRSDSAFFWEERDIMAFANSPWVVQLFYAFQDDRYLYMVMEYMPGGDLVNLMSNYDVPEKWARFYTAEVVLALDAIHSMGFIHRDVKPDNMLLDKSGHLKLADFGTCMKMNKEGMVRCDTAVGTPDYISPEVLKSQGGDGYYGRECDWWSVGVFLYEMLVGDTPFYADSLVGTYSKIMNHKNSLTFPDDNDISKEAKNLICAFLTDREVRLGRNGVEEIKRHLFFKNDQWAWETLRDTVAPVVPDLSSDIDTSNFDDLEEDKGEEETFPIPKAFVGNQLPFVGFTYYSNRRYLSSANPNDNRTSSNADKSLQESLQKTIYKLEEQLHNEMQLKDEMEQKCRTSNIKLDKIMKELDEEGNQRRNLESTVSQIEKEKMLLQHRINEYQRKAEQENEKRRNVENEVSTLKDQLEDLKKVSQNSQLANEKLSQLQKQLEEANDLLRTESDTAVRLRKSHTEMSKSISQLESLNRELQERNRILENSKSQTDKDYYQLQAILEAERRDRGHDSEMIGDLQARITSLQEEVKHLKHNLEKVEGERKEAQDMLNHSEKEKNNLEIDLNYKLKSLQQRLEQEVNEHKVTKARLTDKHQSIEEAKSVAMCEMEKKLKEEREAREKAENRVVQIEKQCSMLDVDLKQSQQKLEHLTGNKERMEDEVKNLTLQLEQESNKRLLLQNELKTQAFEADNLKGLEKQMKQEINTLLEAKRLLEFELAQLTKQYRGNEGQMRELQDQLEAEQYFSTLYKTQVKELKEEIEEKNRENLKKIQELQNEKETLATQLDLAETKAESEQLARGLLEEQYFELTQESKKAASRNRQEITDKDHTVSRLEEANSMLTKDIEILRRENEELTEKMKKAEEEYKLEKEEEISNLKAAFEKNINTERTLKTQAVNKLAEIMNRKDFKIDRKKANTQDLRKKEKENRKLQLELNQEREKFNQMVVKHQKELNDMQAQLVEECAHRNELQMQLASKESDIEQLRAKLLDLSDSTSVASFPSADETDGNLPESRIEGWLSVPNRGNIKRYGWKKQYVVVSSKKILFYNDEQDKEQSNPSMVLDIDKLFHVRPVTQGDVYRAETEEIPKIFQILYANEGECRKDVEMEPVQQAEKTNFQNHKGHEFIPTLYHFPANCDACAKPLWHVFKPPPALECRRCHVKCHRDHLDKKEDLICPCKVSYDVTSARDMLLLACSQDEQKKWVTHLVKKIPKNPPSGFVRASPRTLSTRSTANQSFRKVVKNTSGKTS
Chain of SRPK2 (P78362 whole entry): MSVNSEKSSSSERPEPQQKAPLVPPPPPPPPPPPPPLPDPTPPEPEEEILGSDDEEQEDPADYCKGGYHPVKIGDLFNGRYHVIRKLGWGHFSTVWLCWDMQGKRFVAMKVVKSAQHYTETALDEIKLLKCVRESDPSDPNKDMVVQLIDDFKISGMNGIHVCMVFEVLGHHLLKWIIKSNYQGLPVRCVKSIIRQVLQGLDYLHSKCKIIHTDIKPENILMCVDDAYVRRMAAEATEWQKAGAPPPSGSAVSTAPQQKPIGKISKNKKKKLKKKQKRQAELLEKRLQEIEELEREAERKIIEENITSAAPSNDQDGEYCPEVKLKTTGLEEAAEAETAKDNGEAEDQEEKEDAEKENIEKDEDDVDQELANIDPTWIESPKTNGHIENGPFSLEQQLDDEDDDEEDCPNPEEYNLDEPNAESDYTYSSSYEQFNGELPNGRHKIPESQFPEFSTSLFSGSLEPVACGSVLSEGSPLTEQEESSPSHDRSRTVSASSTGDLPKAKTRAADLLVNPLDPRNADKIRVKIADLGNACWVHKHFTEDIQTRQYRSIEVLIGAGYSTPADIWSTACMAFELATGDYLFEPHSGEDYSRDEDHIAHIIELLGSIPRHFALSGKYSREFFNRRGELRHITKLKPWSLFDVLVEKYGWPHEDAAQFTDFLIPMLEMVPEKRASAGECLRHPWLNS
Chain of PKCbetaI (P05771 whole entry): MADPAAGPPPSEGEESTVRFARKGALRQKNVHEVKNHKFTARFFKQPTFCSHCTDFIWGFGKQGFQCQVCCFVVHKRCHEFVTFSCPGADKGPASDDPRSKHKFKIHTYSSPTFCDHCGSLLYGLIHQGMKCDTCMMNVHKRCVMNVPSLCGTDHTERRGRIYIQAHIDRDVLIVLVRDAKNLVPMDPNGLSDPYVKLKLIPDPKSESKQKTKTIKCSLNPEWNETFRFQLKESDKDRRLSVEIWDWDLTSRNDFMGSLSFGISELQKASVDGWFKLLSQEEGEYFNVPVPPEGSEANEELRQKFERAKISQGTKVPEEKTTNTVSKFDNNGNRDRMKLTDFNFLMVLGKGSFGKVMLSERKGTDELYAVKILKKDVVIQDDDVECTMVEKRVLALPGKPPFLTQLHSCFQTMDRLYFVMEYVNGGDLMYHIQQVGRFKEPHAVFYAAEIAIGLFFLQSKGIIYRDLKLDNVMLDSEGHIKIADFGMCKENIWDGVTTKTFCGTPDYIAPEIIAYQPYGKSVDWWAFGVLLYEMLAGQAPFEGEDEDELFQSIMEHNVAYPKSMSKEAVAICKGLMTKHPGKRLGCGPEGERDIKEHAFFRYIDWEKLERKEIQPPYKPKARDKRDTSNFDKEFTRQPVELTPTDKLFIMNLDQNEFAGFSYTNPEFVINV
Chain of CK1gamma1 (Q9HCP0 whole entry): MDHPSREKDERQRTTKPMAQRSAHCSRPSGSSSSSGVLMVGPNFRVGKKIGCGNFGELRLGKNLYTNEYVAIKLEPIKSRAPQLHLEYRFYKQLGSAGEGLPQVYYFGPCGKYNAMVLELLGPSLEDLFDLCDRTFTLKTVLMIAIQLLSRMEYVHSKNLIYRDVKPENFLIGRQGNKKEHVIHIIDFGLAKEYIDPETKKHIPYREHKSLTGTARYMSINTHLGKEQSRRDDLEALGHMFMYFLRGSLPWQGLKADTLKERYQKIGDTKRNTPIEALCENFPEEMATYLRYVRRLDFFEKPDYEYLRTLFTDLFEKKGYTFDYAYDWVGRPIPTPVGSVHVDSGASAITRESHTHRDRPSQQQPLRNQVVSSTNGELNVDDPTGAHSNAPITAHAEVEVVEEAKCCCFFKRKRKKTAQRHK

Row | Structure (SMILES) | Avg POC (AURKA) [POC] | Avg POC (Axl) [POC] | Avg POC (CDK3/cyclinE) [POC] | Avg POC (CK1gamma1) [POC] | Avg POC (CLK2) [POC] | Avg POC (DCAMKL2) [POC] | Avg POC (EphA4) [POC] | Avg POC (EphB4) [POC] | Avg POC (FAK) [POC] | Avg POC (Fgr) [POC] | Avg POC (HIPK1) [POC] | Avg POC (IKKalpha) [POC] | Avg POC (IR) [POC] | Avg POC (JAK3) [POC] | Avg POC (MAPKAP-K2) [POC] | Avg POC (MEK1) [POC] | Avg POC (MLK1) [POC] | Avg POC (MRCKalpha) [POC] | Avg POC (MSK2) [POC] | Avg POC (NEK2) [POC] | also measured
1 | COCCN1C[C@@H](NC(=O)Nc2c(C)c(-c3ccnc(C)c3)nn2-c2ccccc2)[C@H](c2ccc(F)c(F)c2)C1 [Example 2, 1-((3S,4R)-4-(3,4-difluorophenyl)-1-(2-methoxyethyl)pyrrolidin-3-yl)-3-(4-methyl-3-(2-methylpyridin-4-yl)-1-phenyl-1H-pyrazol-5-yl)urea] | 116 | 117 | 98 | 92 | 125 | 105 | 108.5 | 104 | 111.5 | 108.5 | 96.5 | 121 | 74.5 | 103.5 | 111 | 100.5 | 103.5 | 113 | 120 | 96 | Avg POC (PDGFRbeta): 108.5 POC; Avg POC (PKCbetaI): 95 POC; Avg POC (PKCdelta): 102.5 POC; Avg POC (PKCgamma): 100.5 POC; Avg POC (PKCtheta): 98.5 POC; Avg POC (PKD1): 96 POC; Avg POC (PTK6): 101 POC; Avg POC (PhKgamma2): 90 POC; Avg POC (Plk3): 101 POC; Avg POC (PrKX): 110.5 POC; Avg POC (ROCK-I): 98 POC; Avg POC (Ret): 106.5 POC; Avg POC (Rse): 96 POC; Avg POC (SRPK2): 96.5 POC; Avg POC (STK33): 94 POC; Avg POC (TLK2): 92.5 POC; Avg POC (TrkB): 1.5 POC; Avg POC (WNK2): 98 POC; Avg POC (p38beta): 101.5 POC; Avg POC (p38gamma): 92 POC
2 | COCCN1C[C@@H](NC(=O)Nc2c(C)c(-c3cnc(C)nc3)nn2-c2ccccc2)[C@H](c2cc(F)cc(F)c2)C1 [Example 14, 1-((3S,4R)-4-(3,5-difluorophenyl)-1-(2-methoxyethyl)pyrrolidin-3-yl)-3-(4-methyl-3-(2-methylpyrimidin-5-yl)-1-phenyl-1H-pyrazol-5-yl)urea] | 106 | 103 | 100.5 | 80 | 111.5 | 114.5 | 103.5 | 96 | 98.5 | 80.5 | 97.5 | 118.5 | 84 | 101 | 101 | 91 | 102 | 124.5 | 116 | 97.5 | Avg POC (PDGFRbeta): 120 POC; Avg POC (PKCbetaI): 101 POC; Avg POC (PKCdelta): 99.5 POC; Avg POC (PKCgamma): 89.5 POC; Avg POC (PKCtheta): 98 POC; Avg POC (PKD1): 97 POC; Avg POC (PTK6): 108.5 POC; Avg POC (PhKgamma2): 88 POC; Avg POC (Plk3): 93.5 POC; Avg POC (PrKX): 94 POC; Avg POC (ROCK-I): 109.5 POC; Avg POC (Ret): 84 POC; Avg POC (Rse): 96.5 POC; Avg POC (SRPK2): 102.5 POC; Avg POC (STK33): 103.5 POC; Avg POC (TLK2): 93.5 POC; Avg POC (TrkB): 4.5 POC; Avg POC (WNK2): 99.5 POC; Avg POC (p38beta): 93 POC; Avg POC (p38gamma): 92.5 POC

— patent US9896435B2, “N-pyrrolidinyl,N′-pyrazolyl-urea, thiourea, guanidine and cyanoguanidine compounds as TrkA kinase inhibitors” (Array BioPharma Inc., priority 2012, dated 2018)
